Measurements taken from publication PMC10648598, “Physiologic and Transcriptomic Effects Triggered by Overexpression of Wild Type and Mutant DNA Topoisomerase I in Streptococcus pneumoniae” (International Journal of Molecular Sciences, 2023).

Target: T1, TopoI (TopoIWT) (Streptococcus pneumoniae, UniProt Q8DPI9)
T1 construct: gene topA
Assay: biochemical

T1 sequence (Q8DPI9 1-701): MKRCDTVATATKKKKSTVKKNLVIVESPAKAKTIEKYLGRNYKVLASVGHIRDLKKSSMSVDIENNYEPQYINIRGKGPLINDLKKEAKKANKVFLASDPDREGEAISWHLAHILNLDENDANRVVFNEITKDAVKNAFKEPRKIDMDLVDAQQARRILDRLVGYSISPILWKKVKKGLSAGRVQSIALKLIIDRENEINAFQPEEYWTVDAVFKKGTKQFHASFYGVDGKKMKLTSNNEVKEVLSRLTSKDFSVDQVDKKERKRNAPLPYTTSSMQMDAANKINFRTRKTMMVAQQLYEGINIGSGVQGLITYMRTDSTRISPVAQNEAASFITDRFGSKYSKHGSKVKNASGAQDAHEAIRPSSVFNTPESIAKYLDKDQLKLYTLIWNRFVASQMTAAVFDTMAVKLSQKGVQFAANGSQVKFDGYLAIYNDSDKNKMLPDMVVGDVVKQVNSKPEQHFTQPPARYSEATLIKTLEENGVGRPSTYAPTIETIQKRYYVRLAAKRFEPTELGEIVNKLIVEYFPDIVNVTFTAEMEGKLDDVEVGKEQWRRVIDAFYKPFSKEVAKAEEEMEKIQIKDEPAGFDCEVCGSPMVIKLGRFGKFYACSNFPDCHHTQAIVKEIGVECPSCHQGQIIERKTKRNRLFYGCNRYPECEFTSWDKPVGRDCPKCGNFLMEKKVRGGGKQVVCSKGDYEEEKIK

## CNCCc1cc2c(c3c1ccc1cc4c(cc13)OCO4)OCO2 [SCN, Seconeolitsine]
  IC50: 6.8 ± 2 µM
